Data from US6489268B1, “Highly selective herbicidal phenoxypropionic acid alkoxycarbonyl anilid compounds and method of preparing the same” (Dongbu Hannong Chemical Co., Ltd., priority 1999, dated 2002).

Legend:
Assay in all cases: Leaf treatment test (post-emergence spray, % damage)
Type in all cases: in vivo
Conditions in all cases: 14 days after treatment, vs untreated control
[1] = tested on: Echinochloa crus-galli Beauv. var. caudata Kitagawa (Barnyard grass, ECHCG)
Protocol: (§1) Seeds of rice, wheat, barley, corn, cotton, barnyard grass, common sorgum, large crabgrass and fall panicum were seeded at a pot with a surface area of 600 cm. When barnyard grass kept at 20˜30° C. had three leaves, wettable powders prepared by mixing 1 weight part of the active compound, 5 weight part of acetone and 1 weight part of emulsifier and diluting with water was applied directly on the leaves in 2000 l per hectare. The concentration of the spray liquid was so chosen the particular amounts of the active compound desired. 14 days after the treatment, the degree of damage to the plants was rated in % damage in comparison to the development of untreated control. 0% no action (like untreated control) 20% slight effect 70% herbicidal effect 100% total destruction [table]

[2] = tested on: Oryza sativa L. cv. Dongjin (Rice, ORYSA)
Protocol: as §1

[3] = tested on: Panicum dichotomiflorum Michx (Fall panicum, PANDI)
Protocol: as §1

[4] = tested on: Gossypium (Cotton, GOSHI)
Protocol: as §1

[5] = tested on: Zea mays L. (Corn, ZEAMX)
Protocol: as §1

[6] = tested on: Andropogon sorghum (Common sorgum, SORBI)
Protocol: as §1

[7] = tested on: Digitaria Sanguinalis (L.) SCOP (Large crabgrass, DIGSA)
Protocol: as §1

[8] = tested on: Glydne max (L.) MERR (Soy bean, GLXMA)
Protocol: [The procedure below names another organism; the source lists this organism under the same test.] as §1

[9] = tested on: Triticum aestivum L. (Wheat, TRZAW)
Protocol: as §1

SMILES | degree of damage to the plants, ECHCG ([1]; 15 g/ha) [%] | degree of damage to the plants, ECHCG ([1]; 30 g/ha) [%] | degree of damage to the plants, ECHCG ([1]; 60 g/ha) [%] | degree of damage to the plants, ECHCG ([1]; 125 g/ha) [%] | degree of damage to the plants, ECHCG ([1]; 250 g/ha) [%] | degree of damage to the plants, ECHCG ([1]; 500 g/ha) [%] | degree of damage to the plants, ECHCG ([1]; 1000 g/ha) [%] | degree of damage to the plants, ORYSA ([2]; 15 g/ha) [%] | degree of damage to the plants, ORYSA ([2]; 30 g/ha) [%] | degree of damage to the plants, ORYSA ([2]; 60 g/ha) [%] | degree of damage to the plants, ORYSA ([2]; 125 g/ha) [%] | degree of damage to the plants, ORYSA ([2]; 250 g/ha) [%] | degree of damage to the plants, ORYSA ([2]; 500 g/ha) [%] | degree of damage to the plants, ORYSA ([2]; 1000 g/ha) [%] | also measured
COC(=O)c1cccc(NC(=O)C(C)Oc2ccc(Oc3nc4ccc(Cl)cc4o3)cc2)c1 (stereo not shown) [Compound 1] | 0 | 80 | 100 | 100 | 100 | 100 | 100 | 0 | 0 | 0 | 0 | 10 | 20 | 30 | 
CCOC(=O)c1ccc(NC(=O)C(C)Oc2ccc(Oc3nc4ccc(Cl)cc4o3)cc2)cc1 (stereo not shown) [Compound 5] |  |  |  |  |  |  |  |  |  |  |  |  |  |  | degree of damage to the plants, PANDI ([3]; 0.025 kg/ha): 95%; degree of damage to the plants, PANDI ([3]; 0.1 kg/ha): 100%; degree of damage to the plants, ECHCG ([1]; 0.025 kg/ha): 95%; degree of damage to the plants, ECHCG ([1]; 0.1 kg/ha): 100%; degree of damage to the plants, GOSHI ([4]; 0.025 kg/ha): 0%; degree of damage to the plants, GOSHI ([4]; 0.1 kg/ha): 0%; degree of damage to the plants, ZEAMX ([5]; 0.025 kg/ha): 0%; degree of damage to the plants, ZEAMX ([5]; 0.1 kg/ha): 30%; degree of damage to the plants, SORBI ([6]; 0.025 kg/ha): 95%; degree of damage to the plants, SORBI ([6]; 0.1 kg/ha): 100%; degree of damage to the plants, ORYSA ([2]; 0.025 kg/ha): 0%; degree of damage to the plants, ORYSA ([2]; 0.1 kg/ha): 40%; degree of damage to the plants, DIGSA ([7]; 0.025 kg/ha): 100%; degree of damage to the plants, DIGSA ([7]; 0.1 kg/ha): 100%; degree of damage to the plants, GLXMA ([8]; 0.025 kg/ha): 0%; degree of damage to the plants, GLXMA ([8]; 0.1 kg/ha): 20%; degree of damage to the plants, TRZAW ([9]; 0.025 kg/ha): 0%; degree of damage to the plants, TRZAW ([9]; 0.1 kg/ha): 20%
CCOC(=O)c1cccc(N(C)C(=O)C(C)Oc2ccc(Oc3nc4ccc(Cl)cc4o3)cc2)c1 (stereo not shown) [Compound 3] | 0 | 0 | 20 | 90 | 100 | 100 | 100 | 0 | 0 | 0 | 0 | 0 | 0 | 0 | 
